One assay deals with T1, hS1P1R (hEdg1) (Homo sapiens, UniProt P21453).
T1 construct: purchased Lonza
The assay can be described thus: hS1P1R GTPγS Binding Assay (Assay 3a). It counts as biochemical. Summed up: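 Human S1P1 receptor membranes (4 μg) incubated 1 h at room temperature with 30 μM GDP, 0.1 nM [35S]GTPγS, 0.25% fatty-acid-free BSA and serially diluted agonist in pH 7.9 Tris buffer with Mg2+ and EGTA. Bound radioactivity read by WGA SPA after a further 1 h; EC50 reported unless noted.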

In another assay the target is S1P1 (Homo sapiens, UniProt P21453). The assay can be described thus: Tango β-arrestin Recruitment Assay in U2OS cells (Assay 2b). More on the design: linker with TEV protease (N1a) cleavage site (C). It counts as cell-based. Conditions: Tango β-arrestin Recruitment Assay, read-out: Assay 2b EC50. The method in brief:
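U2OS cells expressing S1P1 and reporter, serum-starved 48 h, treated with compound (10-point 3-fold series, top 1 μM, 1% DMSO) overnight at 37 °C; β-lactamase substrate added 2 h at room temperature. F460/F530 ratio normalised to 1 μM S1P (100%) and DMSO; EC50 from concentration-response.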
On the technique in general: Recruitment of arrestin is a read-out of receptor activation apart from second messengers.

The EC50 is the concentration giving half of the maximal effect.

T1 sequence (P21453 whole entry): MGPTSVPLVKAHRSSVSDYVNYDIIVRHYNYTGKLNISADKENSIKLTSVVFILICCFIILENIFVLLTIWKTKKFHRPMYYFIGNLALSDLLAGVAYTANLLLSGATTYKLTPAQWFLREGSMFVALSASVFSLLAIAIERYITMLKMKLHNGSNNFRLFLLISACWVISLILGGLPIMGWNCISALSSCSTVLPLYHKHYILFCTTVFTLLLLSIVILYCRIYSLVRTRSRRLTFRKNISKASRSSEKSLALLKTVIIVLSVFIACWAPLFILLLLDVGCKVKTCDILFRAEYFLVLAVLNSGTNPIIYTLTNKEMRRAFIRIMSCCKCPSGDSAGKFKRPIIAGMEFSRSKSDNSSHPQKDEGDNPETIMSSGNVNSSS
Sequence of S1P1 (P21453 whole entry): as above
Sequence of S1P1 (P32121 whole entry partner): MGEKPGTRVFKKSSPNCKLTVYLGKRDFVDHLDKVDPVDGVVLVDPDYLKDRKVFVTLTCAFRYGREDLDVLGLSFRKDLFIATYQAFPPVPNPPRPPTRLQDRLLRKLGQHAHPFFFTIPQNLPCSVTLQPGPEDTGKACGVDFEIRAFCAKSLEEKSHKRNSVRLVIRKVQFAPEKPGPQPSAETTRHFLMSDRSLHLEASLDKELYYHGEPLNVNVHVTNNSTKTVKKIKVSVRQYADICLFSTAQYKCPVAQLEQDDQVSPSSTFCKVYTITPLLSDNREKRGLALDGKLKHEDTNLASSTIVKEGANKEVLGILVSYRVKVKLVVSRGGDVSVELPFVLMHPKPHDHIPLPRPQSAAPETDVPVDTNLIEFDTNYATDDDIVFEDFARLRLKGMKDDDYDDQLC

`O=C(O)CCc1cc(Cl)c(-c2noc(-c3cn4cc(C(F)(F)F)cc(Cl)c4n3)n2)cc1F` [Entry 24]: the EC50 at hS1P1R (hEdg1) and at S1P1 was at most 100 nM each time.
Take `O=C(O)CCc1cc(Cl)c(-c2noc(-c3cn4cc(C(F)(F)F)cc(Br)c4n3)n2)cc1F` [Entry 49]: the concentration giving a half-maximal response (EC50) on hS1P1R (hEdg1) and at S1P1 was at most 100 nM each time.
`Cc1cc(CCC(=O)O)c(Cl)cc1-c1noc(-c2cn3cc(C(F)(F)F)cc(Cl)c3n2)n1` [Entry 56]: the EC50 at hS1P1R (hEdg1) and on S1P1 was at most 100 nM in each case.
In the case of `C[C@H](CO)Oc1cc(Cl)c(-c2noc(-c3cn4cc(C(F)(F)F)cc(Cl)c4n3)n2)cc1F` [Example 93, (2R)-2-[(5-chloro-4-{5-[8-chloro-6-(trifluoromethyl)imidazo[1,2-a]pyridin-2-yl]-1,2,4-oxadiazol-3-yl}-2-fluorophenyl)oxy]propan-1-ol], the EC50 on hS1P1R (hEdg1) and on S1P1 was at most 100 nM throughout.
In the case of `O=C(O)CCc1cc(Cl)c(-c2nnc(-c3cn4cc(C(F)(F)F)cc(Cl)c4n3)s2)cc1F` [Example 176, 3-(5-chloro-4-{5-[8-chloro-6-(trifluoromethyl)imidazo[1,2-a]pyridin-2-yl]-1,3,4-thiadiazol-2-yl}-2-fluorophenyl)propanoic acid], the EC50 on hS1P1R (hEdg1) and on S1P1 was at most 100 nM throughout.
As to `O=C(O)CCc1cc(Cl)c(-c2nnc(-c3cn4cc(C(F)(F)F)cc(Br)c4n3)s2)cc1F` [Example 177, 3-(4-{5-[8-bromo-6-(trifluoromethyl)imidazo[1,2-a]pyridin-2-yl]-1,3,4-thiadiazol-2-yl}-5-chloro-2-fluorophenyl)propanoic acid], the EC50 on hS1P1R (hEdg1) and at S1P1 was at most 100 nM in each case.
On to `OCC(O)COc1cc(Cl)c(-c2noc(-c3cn4cc(C(F)(F)F)cc(Cl)c4n3)n2)cc1Cl` (stereo not drawn) [Example 208, 3-[(2,5-dichloro-4-{5-[8-chloro-6-(trifluoromethyl)imidazo[1,2-a]pyridin-2-yl]-1,2,4-oxadiazol-3-yl}phenyl)oxy]propane-1,2-diol], for which the concentration giving a half-maximal response (EC50) at hS1P1R (hEdg1) and at S1P1 was at most 100 nM each time.
As for `O=C(O)CCc1cc(Cl)c(-c2nc(-c3cn4cc(C(F)(F)F)cc(Cl)c4n3)no2)cc1F` [Example 233, 3-(5-chloro-4-{3-[8-chloro-6-(trifluoromethyl)imidazo[1,2-a]pyridin-2-yl]-1,2,4-oxadiazol-5-yl}-2-fluorophenyl)propanoic acid], the EC50 on hS1P1R (hEdg1) is 100 to 500 nM; on S1P1, at most 100 nM.
Regarding `O=C(O)CCc1cc(Cl)c(-c2noc(-c3cn4cc(C(F)(F)F)cc(Cl)c4n3)n2)cc1Cl` [Example 242, 3-(2,5-dichloro-4-{5-[8-chloro-6-(trifluoromethyl)imidazo[1,2-a]pyridin-2-yl]-1,2,4-oxadiazol-3-yl}phenyl)propanoic acid], the EC50 on hS1P1R (hEdg1) and on S1P1 was at most 100 nM each time.
Consider `OCCOc1cc(Cl)c(-c2noc(-c3cn4cc(C(F)(F)F)cc(Cl)c4n3)n2)cc1F` [Example 263, 2-[(5-chloro-4-{5-[8-chloro-6-(trifluoromethyl)imidazo[1,2-a]pyridin-2-yl]-1,2,4-oxadiazol-3-yl}-2-fluorophenyl)oxy]ethanol], for which the 50% effective concentration (EC50) on hS1P1R (hEdg1) and on S1P1 was at most 100 nM each time.
As for `CC(C)Oc1cc(Cl)c2nc(-c3nc(-c4cc(F)c(CCC(=O)O)cc4Cl)no3)cn2c1` [Example 301, 3-[5-chloro-4-(5-{8-chloro-6-[(1-methylethyl)oxy]imidazo[1,2-a]pyridin-2-yl}-1,2,4-oxadiazol-3-yl)-2-fluorophenyl]propanoic acid], the results for the EC50 on hS1P1R (hEdg1) and at S1P1 were 100 to 500 nM and at most 100 nM, respectively.
On to `O=C(O)CCc1cc(Cl)c(-c2noc(-c3cn4cc(I)cc(Cl)c4n3)n2)cc1F` [Example 302, 3-{5-chloro-4-[5-(8-chloro-6-iodoimidazo[1,2-a]pyridin-2-yl)-1,2,4-oxadiazol-3-yl]-2-fluorophenyl}propanoic acid], for which the concentration for a half-maximal effect (EC50) is 100 to 500 nM at hS1P1R (hEdg1) and at most 100 nM on S1P1.

The record behind these values is US20100160369A1, “S1P1 Agonists and Methods of Making And Using” (EXELIXIS, INC., priority 2008, published 2010).
